Experimental data taken from ChEMBL document CHEMBL5113380, “Functionalized quinoxalinones as privileged structures with broad-ranging pharmacological activities” (Eur J Med Chem, 2022).
≈ marks a conversion by molar mass, not a printed value. Blank lines part the entries; values can stand above or below the compound they belong to.

How the values were obtained:
Klebsiella pneumoniae = experiment: Antibacterial activity against Klebsiella pneumoniae; format: functional
Escherichia coli [1] = experiment: Antibacterial activity against Escherichia coli; format: functional
[2] = Inhibition of Escherichia coli topoisomerase 4
Staphylococcus aureus [3] = experiment: Antibacterial activity against Staphylococcus aureus; format: functional
[4] = Lipophilicity, logD of compound; format: physicochemical; details: octanol/water
Pseudomonas aeruginosa [5] = experiment: Antibacterial activity against Pseudomonas aeruginosa; format: functional
[6] = Dissociation constant, pKa of the compound; format: physicochemical
[7] = molecular target: Voltage-gated inwardly rectifying potassium channel KCNH2 (Homo sapiens, UniProt Q12809); experiment: Inhibition of hERG; format: toxicity
Staphylococcus aureus [8] = experiment: Antibacterial activity against Staphylococcus aureus assessed as diameter zone of inhibition; format: functional
Pseudomonas aeruginosa [9] = experiment: Antibacterial activity against Pseudomonas aeruginosa assessed as diameter zone of inhibition; format: functional
Streptococcus pneumoniae = experiment: Antibacterial activity against Streptococcus pneumoniae assessed as diameter zone of inhibition; format: functional
Bacillus subtilis = experiment: Antibacterial activity against Bacillus subtilis assessed as diameter zone of inhibition; format: functional
Escherichia coli [10] = experiment: Antibacterial activity against Escherichia coli assessed as diameter zone of inhibition; format: functional
Salmonella typhimurium = experiment: Antibacterial activity against Salmonella typhimurium assessed as diameter zone of inhibition; format: functional, Salmonella enterica subsp. enterica serovar Typhimurium
[11] = Cytotoxicity against mock-infected human MT4 cells; format: toxicity, cell-based
Trypsin = Trypsin (Homo sapiens, UniProt P07477+P07478+P35030); experiment: Inhibition of trypsin (unknown origin); format: protein assay
[12] = molecular target: T1, Glutamate receptor ionotropic, kainate 5 (Homo sapiens, UniProt Q16478); experiment: Binding affinity to GluK5 receptor (unknown origin)
T1 sequence (Q16478 whole entry): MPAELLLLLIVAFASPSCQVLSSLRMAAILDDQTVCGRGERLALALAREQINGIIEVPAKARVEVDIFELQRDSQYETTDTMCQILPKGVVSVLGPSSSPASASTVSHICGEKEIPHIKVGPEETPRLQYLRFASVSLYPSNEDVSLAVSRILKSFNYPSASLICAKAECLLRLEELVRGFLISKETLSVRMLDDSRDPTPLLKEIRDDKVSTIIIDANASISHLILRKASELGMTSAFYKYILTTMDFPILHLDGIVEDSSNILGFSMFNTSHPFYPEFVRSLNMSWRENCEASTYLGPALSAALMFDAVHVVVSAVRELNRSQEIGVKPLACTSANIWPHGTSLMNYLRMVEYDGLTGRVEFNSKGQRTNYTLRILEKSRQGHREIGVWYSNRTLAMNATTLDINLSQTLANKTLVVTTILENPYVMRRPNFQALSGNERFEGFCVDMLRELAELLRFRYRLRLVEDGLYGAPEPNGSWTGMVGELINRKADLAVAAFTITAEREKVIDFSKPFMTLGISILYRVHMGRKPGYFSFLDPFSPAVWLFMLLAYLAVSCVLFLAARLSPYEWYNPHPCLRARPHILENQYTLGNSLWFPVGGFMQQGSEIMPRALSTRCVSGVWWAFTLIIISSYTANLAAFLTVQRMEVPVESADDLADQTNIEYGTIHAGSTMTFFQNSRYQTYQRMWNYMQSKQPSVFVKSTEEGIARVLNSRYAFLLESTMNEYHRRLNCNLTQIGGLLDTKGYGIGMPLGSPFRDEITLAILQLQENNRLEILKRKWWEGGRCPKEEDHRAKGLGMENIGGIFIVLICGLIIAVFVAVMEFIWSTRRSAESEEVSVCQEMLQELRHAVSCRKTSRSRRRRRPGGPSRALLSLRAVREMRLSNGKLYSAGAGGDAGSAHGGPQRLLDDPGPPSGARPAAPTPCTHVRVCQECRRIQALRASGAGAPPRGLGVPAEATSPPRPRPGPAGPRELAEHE

[13] = molecular target: Glutamate receptor ionotropic, kainate 1 (Homo sapiens, UniProt P39086); experiment: Binding affinity to GluK1 receptor (unknown origin)
Glutamate receptor 2 = Glutamate receptor 2 (Homo sapiens, UniProt P42262); experiment: Binding affinity to GluA2 receptor (unknown origin)
[14] = molecular target: Glutamate receptor ionotropic, kainate 2 (Homo sapiens, UniProt Q13002); experiment: Binding affinity to GluK2 receptor (unknown origin)
Homo sapiens [15] = organism: Homo sapiens; experiment: Ratio IC50 for inhibition of JNK1 (unknown origin) over JNK3 (unknown origin)
Homo sapiens [16] = organism: Homo sapiens; experiment: Ratio IC50 for inhibition of JNK2 (unknown origin) over JNK3 (unknown origin)
[17] = molecular target: Glutamate [NMDA] receptor; experiment: Displacement of [3H]DCKA from NMDA receptor (unknown origin); format: protein-complex assay, Homo sapiens
[18] = molecular target: Glutamate [NMDA] receptor (Homo sapiens) (UniProt Q05586+Q12879+Q13224+O15399+O60391+Q14957+Q8TCU5); experiment: Displacement of [3H]DCKA from NMDA receptor (unknown origin) at 10 ng/ml relative to control; format: protein-complex assay; details: filed as antagonist
Toxoplasma gondii = experiment: Anti-tachyzoite activity against Toxoplasma gondii at 100 uM; format: functional, type III
[19] = molecular target: T2, Group 10 secretory phospholipase A2 (Homo sapiens, UniProt O15496); experiment: Inhibition of human PLA2G10
T2 sequence (O15496 whole entry): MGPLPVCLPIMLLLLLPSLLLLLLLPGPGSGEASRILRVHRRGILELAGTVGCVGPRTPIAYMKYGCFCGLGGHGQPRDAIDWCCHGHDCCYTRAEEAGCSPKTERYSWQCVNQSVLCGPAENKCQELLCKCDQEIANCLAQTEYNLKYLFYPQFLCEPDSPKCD

[20] = molecular target: T3, Phospholipase A2, membrane associated (Homo sapiens, UniProt P14555); experiment: Inhibition of human PLA2G2A
T3 sequence (P14555 whole entry): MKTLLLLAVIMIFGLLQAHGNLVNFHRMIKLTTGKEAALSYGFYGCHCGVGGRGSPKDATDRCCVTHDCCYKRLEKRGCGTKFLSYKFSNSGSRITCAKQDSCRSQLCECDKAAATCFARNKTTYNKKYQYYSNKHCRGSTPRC

[21] = molecular target: Phospholipase A2, major isoenzyme (Sus scrofa, UniProt P00592); experiment: Inhibition of porcine PLA2G1B
Phospholipase A2 group V = molecular target: T4, Phospholipase A2 group V (Homo sapiens, UniProt P39877); experiment: Inhibition of human PLA2G5
T4 sequence (P39877 whole entry): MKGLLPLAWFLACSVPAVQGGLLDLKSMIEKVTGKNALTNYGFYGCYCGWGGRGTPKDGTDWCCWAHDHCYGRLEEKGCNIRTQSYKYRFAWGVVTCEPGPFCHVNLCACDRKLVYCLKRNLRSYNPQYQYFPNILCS

[22] = molecular target: T5, Group XIIA secretory phospholipase A2 (Homo sapiens, UniProt Q9BZM1); experiment: Inhibition of human PLA2G12A
T5 sequence (Q9BZM1 whole entry): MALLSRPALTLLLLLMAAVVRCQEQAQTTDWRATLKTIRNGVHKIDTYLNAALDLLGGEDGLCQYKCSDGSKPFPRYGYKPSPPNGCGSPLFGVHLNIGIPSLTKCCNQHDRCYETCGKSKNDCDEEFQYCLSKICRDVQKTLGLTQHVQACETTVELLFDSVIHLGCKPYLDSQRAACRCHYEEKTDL

Alpha amylase = molecular target: T6, Alpha amylase (Homo sapiens, UniProt P0DUB6); experiment: Inhibition of alpha-amylase (unknown origin)
T6 sequence (P0DUB6 whole entry): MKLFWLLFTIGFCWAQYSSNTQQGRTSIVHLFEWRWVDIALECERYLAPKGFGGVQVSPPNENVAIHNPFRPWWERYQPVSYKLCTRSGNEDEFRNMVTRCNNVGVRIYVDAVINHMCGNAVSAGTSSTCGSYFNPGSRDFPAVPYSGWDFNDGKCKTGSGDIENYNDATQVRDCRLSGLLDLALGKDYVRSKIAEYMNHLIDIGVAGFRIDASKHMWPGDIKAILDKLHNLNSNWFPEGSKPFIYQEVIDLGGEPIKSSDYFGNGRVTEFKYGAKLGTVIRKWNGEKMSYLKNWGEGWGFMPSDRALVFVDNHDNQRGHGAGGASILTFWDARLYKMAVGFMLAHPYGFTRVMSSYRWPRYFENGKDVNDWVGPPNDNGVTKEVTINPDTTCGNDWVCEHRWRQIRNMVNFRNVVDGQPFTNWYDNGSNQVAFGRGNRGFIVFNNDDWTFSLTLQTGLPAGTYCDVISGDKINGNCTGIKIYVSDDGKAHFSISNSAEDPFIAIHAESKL

Sequence of Glutamate receptor ionotropic, kainate 2 (Q13002 whole entry): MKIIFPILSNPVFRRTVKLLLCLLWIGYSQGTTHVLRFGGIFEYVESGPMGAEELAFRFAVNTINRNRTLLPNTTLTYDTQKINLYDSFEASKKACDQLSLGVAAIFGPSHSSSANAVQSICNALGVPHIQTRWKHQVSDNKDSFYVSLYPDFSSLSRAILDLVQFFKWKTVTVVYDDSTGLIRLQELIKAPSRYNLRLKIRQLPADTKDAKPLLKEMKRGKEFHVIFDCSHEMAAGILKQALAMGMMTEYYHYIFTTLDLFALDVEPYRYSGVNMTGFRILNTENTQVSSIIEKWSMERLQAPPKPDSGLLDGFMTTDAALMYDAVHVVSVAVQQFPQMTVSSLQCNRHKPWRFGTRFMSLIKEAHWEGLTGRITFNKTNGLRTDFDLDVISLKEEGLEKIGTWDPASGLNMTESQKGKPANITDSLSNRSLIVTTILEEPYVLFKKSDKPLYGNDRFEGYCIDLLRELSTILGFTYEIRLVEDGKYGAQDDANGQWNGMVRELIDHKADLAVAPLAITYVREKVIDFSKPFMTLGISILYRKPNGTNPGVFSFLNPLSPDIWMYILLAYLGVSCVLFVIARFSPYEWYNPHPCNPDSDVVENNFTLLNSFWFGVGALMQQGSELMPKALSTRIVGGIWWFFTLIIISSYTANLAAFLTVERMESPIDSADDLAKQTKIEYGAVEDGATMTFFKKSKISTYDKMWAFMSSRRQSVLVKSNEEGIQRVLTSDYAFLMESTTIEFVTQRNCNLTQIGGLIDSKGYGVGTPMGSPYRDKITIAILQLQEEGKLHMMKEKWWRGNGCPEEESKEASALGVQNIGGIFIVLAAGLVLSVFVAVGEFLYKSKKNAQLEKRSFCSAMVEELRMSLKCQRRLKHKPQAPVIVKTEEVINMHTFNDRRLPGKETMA
Sequence of Glutamate receptor 2 (P42262 whole entry): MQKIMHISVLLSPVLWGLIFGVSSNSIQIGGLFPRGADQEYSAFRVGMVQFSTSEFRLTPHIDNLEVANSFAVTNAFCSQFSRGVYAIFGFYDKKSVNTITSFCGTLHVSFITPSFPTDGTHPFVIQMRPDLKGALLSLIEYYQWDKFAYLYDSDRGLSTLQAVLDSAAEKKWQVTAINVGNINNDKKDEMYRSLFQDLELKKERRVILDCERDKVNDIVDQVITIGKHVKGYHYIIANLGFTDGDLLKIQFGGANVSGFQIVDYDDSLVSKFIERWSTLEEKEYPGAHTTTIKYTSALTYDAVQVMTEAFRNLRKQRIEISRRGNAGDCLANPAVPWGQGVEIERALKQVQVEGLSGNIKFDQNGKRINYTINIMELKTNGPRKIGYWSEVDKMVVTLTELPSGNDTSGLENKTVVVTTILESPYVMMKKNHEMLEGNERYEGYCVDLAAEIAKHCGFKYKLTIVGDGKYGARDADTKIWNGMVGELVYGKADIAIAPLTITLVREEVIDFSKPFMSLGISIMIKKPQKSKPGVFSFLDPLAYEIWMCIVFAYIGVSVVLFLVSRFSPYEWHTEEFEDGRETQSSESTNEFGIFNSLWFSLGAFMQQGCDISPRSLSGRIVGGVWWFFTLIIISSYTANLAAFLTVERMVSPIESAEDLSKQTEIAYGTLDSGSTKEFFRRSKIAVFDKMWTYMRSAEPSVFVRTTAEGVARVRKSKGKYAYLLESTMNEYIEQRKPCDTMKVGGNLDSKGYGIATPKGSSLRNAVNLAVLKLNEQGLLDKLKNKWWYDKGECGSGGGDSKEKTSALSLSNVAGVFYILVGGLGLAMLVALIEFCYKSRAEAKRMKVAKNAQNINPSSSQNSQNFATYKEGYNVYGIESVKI
Sequence of Glutamate receptor ionotropic, kainate 1 (P39086 whole entry): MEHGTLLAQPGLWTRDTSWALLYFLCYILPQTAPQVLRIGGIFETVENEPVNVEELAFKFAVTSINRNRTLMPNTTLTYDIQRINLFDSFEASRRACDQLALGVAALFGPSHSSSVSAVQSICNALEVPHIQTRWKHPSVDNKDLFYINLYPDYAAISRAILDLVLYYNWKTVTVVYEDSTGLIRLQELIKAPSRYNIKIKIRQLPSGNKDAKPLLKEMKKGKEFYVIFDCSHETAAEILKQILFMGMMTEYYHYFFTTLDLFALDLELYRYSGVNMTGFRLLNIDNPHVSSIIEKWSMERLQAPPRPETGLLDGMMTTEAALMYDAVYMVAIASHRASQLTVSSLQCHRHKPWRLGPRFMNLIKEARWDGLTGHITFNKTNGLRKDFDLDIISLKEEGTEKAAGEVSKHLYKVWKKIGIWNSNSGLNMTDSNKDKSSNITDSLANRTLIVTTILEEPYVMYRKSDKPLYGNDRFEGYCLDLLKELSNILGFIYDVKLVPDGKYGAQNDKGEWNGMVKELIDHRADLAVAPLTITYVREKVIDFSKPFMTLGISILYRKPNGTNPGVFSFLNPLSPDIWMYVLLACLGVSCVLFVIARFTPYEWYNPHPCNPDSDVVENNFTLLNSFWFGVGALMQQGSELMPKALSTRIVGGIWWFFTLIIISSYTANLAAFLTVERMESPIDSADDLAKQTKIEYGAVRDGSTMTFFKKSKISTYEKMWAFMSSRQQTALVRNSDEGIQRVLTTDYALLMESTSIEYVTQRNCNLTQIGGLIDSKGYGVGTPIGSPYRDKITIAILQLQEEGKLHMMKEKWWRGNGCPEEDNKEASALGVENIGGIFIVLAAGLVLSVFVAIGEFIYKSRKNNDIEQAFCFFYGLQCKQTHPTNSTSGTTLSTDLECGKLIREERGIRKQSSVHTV
Sequence of Phospholipase A2, major isoenzyme (P00592 whole entry): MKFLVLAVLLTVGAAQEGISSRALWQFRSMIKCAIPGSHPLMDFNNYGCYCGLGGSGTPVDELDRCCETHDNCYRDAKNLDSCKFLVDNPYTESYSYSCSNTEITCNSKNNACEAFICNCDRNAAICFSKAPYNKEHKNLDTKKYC
Sequence of Voltage-gated inwardly rectifying potassium channel KCNH2 (Q12809 whole entry): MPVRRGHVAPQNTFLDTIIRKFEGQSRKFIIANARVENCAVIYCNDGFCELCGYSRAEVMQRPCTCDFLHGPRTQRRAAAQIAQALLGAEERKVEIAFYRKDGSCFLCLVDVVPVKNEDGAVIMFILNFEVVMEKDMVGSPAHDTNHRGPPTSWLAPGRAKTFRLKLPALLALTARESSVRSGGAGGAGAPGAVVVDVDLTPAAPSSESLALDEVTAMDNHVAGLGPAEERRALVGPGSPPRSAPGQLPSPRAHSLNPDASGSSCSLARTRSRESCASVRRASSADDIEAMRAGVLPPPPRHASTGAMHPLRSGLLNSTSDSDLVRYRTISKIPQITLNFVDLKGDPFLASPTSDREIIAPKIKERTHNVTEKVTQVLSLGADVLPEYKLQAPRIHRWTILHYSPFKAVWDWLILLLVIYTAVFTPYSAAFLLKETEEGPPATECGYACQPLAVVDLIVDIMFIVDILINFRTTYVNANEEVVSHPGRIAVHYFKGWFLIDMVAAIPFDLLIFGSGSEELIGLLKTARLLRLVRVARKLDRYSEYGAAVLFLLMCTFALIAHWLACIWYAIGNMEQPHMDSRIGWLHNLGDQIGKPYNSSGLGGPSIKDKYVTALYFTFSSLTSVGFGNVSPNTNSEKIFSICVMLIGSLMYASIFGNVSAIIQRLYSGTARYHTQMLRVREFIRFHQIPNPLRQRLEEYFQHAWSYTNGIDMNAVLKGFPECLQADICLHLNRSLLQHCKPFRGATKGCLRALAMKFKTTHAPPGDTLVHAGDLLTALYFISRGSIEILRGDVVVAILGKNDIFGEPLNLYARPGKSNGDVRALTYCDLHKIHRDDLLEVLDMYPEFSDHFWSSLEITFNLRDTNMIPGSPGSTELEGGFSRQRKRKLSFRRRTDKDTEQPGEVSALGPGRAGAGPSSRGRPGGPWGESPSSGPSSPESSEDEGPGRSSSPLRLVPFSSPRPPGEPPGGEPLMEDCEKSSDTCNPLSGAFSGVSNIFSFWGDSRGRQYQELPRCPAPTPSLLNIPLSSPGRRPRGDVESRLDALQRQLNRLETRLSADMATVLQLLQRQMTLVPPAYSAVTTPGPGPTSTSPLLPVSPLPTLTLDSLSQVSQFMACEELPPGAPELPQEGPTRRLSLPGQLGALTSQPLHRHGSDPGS

MIC90 (Klebsiella pneumoniae): 16 µg/mL (≈ 34.2 µM) | MIC (Escherichia coli [1]): < 0.06 µg/mL | MIC90 (Escherichia coli [1]): 1 µg/mL (≈ 2.14 µM) | IC50 [2]: 0.003 µM | MIC (Staphylococcus aureus [3]): 1 µg/mL | logD [4]: -0.32 | MIC (Pseudomonas aeruginosa [5]): 0.5 µg/mL (≈ 1.07 µM) | MIC90 (Pseudomonas aeruginosa [5]): 4 µg/mL (≈ 8.56 µM) | pKa [6]: 7.28
SMILES: N[C@H](Cn1c(=O)cnc2ccc(F)cc21)[C@H]1CC[C@H](NCc2ncc3c(n2)NC(=O)CO3)CC1
IC50 [7]: > 333 µM

SMILES: Cc1cccc(C)c1NCC(=O)N1CC(=O)Nc2ccccc21
diameter of the inhibition zone (DIZ) (Staphylococcus aureus [8]): 8 mm | diameter of the inhibition zone (DIZ) (Pseudomonas aeruginosa [9]): 11 mm | diameter of the inhibition zone (DIZ) (Streptococcus pneumoniae): 8 mm | diameter of the inhibition zone (DIZ) (Bacillus subtilis): 11 mm | diameter of the inhibition zone (DIZ) (Escherichia coli [10]): 10 mm | diameter of the inhibition zone (DIZ) (Salmonella typhimurium): 9 mm

SMILES: COc1ccc2[nH]c(=O)c(CBr)nc2c1Cl
CC50 [11]: 21 µM

IC50 (Trypsin): 2.4 µM
SMILES: Cn1c(=O)c(Cc2ccc(C(=N)N)cc2)nc2cc(C3(C(=O)N4CCCC4C(=O)NCC(=O)O)CC3)ccc21 (stereo not drawn)

Ki [12]: > 100 µM | Ki [13]: > 100 µM | Ki (Glutamate receptor 2): 23.6 µM | Ki [14]: 100 µM
SMILES: O=C(Nn1c(=O)c(=O)[nH]c2cc(C#Cc3ccccc3)ccc21)c1ccccc1

Ratio IC50 (Homo sapiens [15]): > 500 | Ratio IC50 (Homo sapiens [16]): > 500
SMILES: N#Cc1ccc2c(c1)N/C(=C\C(=O)c1cccc3ccccc13)C(=O)N2

Ki [17]: 0.0051 µM | Activity [18]: 90.3%
SMILES: O=C(O)CC1CCc2cc(Cl)cc3[nH]c(=O)c(=O)n1c23 (stereo not drawn)

SMILES: O=C1CN(C(=O)CNc2cccc(Cl)c2)c2ccccc2N1
diameter of the inhibition zone (DIZ) (Escherichia coli [10]): 9 mm | diameter of the inhibition zone (DIZ) (Salmonella typhimurium): 9 mm

IC50 (Trypsin): 0.55 µM
SMILES: Cn1c(=O)c(Cc2ccc(C(=N)N)cc2)nc2cc(C3(N(C(=O)CC(=O)O)C4CCCC4)CC3)ccc21

Ki [12]: 100 µM | Ki (Glutamate receptor 2): 37.4 µM | Ki [14]: 9.78 µM
SMILES: O=C(Nn1c(=O)c(=O)[nH]c2cc(C#CCO)ccc21)c1ccccc1

MIC (Staphylococcus aureus [3]): 33 µM
SMILES: O=c1[nH]c2ccc(Cl)c(Cl)c2nc1C(F)(F)F
MBC (Staphylococcus aureus [3]): 200 µM (≈ 56.6 µg/mL) | CC50 [11]: 108 µM

SMILES: O=C1CN(CCCCCN2CCCCC2)c2ccc([N+](=O)[O-])cc2N1
Activity (Toxoplasma gondii): 92%

SMILES: Cc1ccccc1NCC(=O)N1CC(=O)Nc2ccccc21
diameter of the inhibition zone (DIZ) (Staphylococcus aureus [8]): 15 mm | diameter of the inhibition zone (DIZ) (Pseudomonas aeruginosa [9]): 12 mm | diameter of the inhibition zone (DIZ) (Streptococcus pneumoniae): 10 mm | diameter of the inhibition zone (DIZ) (Bacillus subtilis): 15 mm | diameter of the inhibition zone (DIZ) (Escherichia coli [10]): 15 mm | diameter of the inhibition zone (DIZ) (Salmonella typhimurium): 9 mm

IC50 [19]: 0.61 µM | IC50 [20]: 1.32 µM | IC50 [21]: 14.8 µM | IC50 (Phospholipase A2 group V): 1.05 µM | IC50 [22]: 0.91 µM | IC50 (Alpha amylase): 1087.43 µM
SMILES: O=c1[nH]c2ccccc2n2c(-c3ccc(O)cc3O)ccc12
